{"source": "patent US20150231236A1", "about": "“METHODS FOR TREATING PATIENTS WITH HYPERCHOLESTEROLEMIA THAT IS NOT ADEQUATELY CONTROLLED BY MODERATE-DOSE STATIN THERAPY” (Regeneron Pharmaceuticals, Inc., priority 2014, published 2015)", "key": {"[1]": {"test_system": "patients with hypercholesterolemia at high CV risk not adequately controlled with rosuvastatin (10 mg or 20 mg)", "assay": "Example 3: safety, treatment-emergent adverse events in pooled treatment groups", "details": "Safety Population; pooled treatment groups"}, "[2]": {"test_system": "patients with hypercholesterolemia at high CV risk not adequately controlled with atorvastatin (20 mg or 40 mg)", "assay": "Example 2: randomized, double-blind trial, lipid efficacy of mAb316P add-on to atorvastatin vs EZE add-on, atorvastatin dose doubling or switch to rosuvastatin", "type": "in vivo, human", "summary_of_the_method": "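Patients on atorvastatin 20 or 40 mg randomized to mAb316P 75 mg SC Q2W (raised to 150 mg from week 12 per CV risk) or blinded comparators, over 24 weeks. Endpoint: percent change in calculated LDL-C (Friedewald; beta quantification if TG >400 mg/dL) from baseline to week 24.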"}}}
{"smiles": "CC(C)c1nc(N(C)S(C)(=O)=O)nc(-c2ccc(F)cc2)c1/C=C/[C@@H](O)C[C@@H](O)CC(=O)O", "note": "[rosuvastatin, reference compound]", "values": [{"measurement": "General Allergic TEAEs", "setting": "[1]", "value": "7 (6.9%) patients (%)"}, {"measurement": "SOC General disorders and administration site conditions", "setting": "[1]", "value": "10 (9.9%) patients (%)"}, {"measurement": "SOC Psychiatric disorders", "setting": "[1]", "value": "3 (3.0%) patients (%)"}, {"measurement": "SOC Respiratory, thoracic and mediastinal disorders", "setting": "[1]", "value": "5 (5.0%) patients (%)"}, {"measurement": "SOC Skin and subcutaneous tissue disorders", "setting": "[1]", "value": "6 (5.9%) patients (%)"}, {"measurement": "TEAEs", "setting": "[1]", "value": "68 (67.3%) patients (%)"}, {"measurement": "Treatment-emergent SAEs", "setting": "[1]", "value": "8 (7.9%) patients (%)"}, {"measurement": "Treatment-emergent cardiovascular events adjudicated positively", "setting": "[1]", "value": "1 (1.0%) patients (%)"}, {"measurement": "Treatment-emergent neurocognitive disorders", "setting": "[1]", "value": "2 (2.0%) patients (%)"}, {"measurement": "Treatment-emergent neurologic disorders", "setting": "[1]", "value": "2 (2.0%) patients (%)"}, {"measurement": "cough", "setting": "[1]", "value": "3 (3.0%) patients (%)"}, {"measurement": "discontinued study treatment early due to a treatment emergent adverse event", "setting": "[1]", "value": "5 (5.0%) patients (%)"}, {"measurement": "injection site reactions (ISRs)", "setting": "[1]", "value": "2 (2.0%) patients (%)"}, {"measurement": "LDL-C W24 % change from baseline, LS mean (SE)", "setting": "[2]; ITT population, week 24, treatment arm as labelled", "value": "−21.4", "unit": "%"}, {"measurement": "Calculated LDL-C LS mean (SE), % Change from Baseline", "setting": "[2]; Week 4", "value": "−22.4 (2.8) %"}, {"measurement": "Calculated LDL-C LS mean (SE), Change from Baseline", "setting": "[2]; Week 4", "value": "−25.2 (3.0)"}, {"measurement": "Calculated LDL-C LS mean (SE), Value (mg/dL)", "setting": "[2]; Week 4", "value": "83.5 (3.0) mg/dL"}, {"measurement": "Calculated LDL-C LS mean (SE), % Change from Baseline", "setting": "[2]; Week 8", "value": "−21.0 (3.2) %"}, {"measurement": "Calculated LDL-C LS mean (SE), Change from Baseline", "setting": "[2]; Week 8", "value": "−22.9 (3.3)"}, {"measurement": "Calculated LDL-C LS mean (SE), Value (mg/dL)", "setting": "[2]; Week 8", "value": "85.8 (3.3) mg/dL"}, {"measurement": "Calculated LDL-C LS mean (SE), % Change from Baseline", "setting": "[2]; Week 12", "value": "−23.3 (3.2) %"}, {"measurement": "Calculated LDL-C LS mean (SE), Change from Baseline", "setting": "[2]; Week 12", "value": "−26.3 (3.5)"}, {"measurement": "Calculated LDL-C LS mean (SE), Value (mg/dL)", "setting": "[2]; Week 12", "value": "82.4 (3.5) mg/dL"}, {"measurement": "Calculated LDL-C LS mean (SE), % Change from Baseline", "setting": "[2]; Week 16", "value": "−15.7 (3.5) %"}, {"measurement": "Calculated LDL-C LS mean (SE), Change from Baseline", "setting": "[2]; Week 16", "value": "−18.7 (3.8)"}, {"measurement": "Calculated LDL-C LS mean (SE), Value (mg/dL)", "setting": "[2]; Week 16", "value": "90.0 (3.8) mg/dL"}, {"measurement": "Calculated LDL-C LS mean (SE), % Change from Baseline", "setting": "[2]; Week 24", "value": "−21.4 (4.2) %"}, {"measurement": "Calculated LDL-C LS mean (SE), Change from Baseline", "setting": "[2]; Week 24", "value": "−23.1 (4.5)"}, {"measurement": "Calculated LDL-C LS mean (SE), Value (mg/dL)", "setting": "[2]; Week 24", "value": "85.6 (4.5) mg/dL"}, {"measurement": "patients achieving the more stringent LDL-C goal of <70 mg/dL", "setting": "[2]; Week 24, calculated LDL-C, across atorvastatin 20 mg and 40 mg regimens", "value": 42.2, "unit": "%"}, {"measurement": "reduced LDL-C levels by", "setting": "[2]; atorvastatin 40 mg regimen, week 24, add-on mAb316P, add-on ezetimibe, doubling of atorvastatin dose or switch to rosuvastatin 40 mg", "value": 21.4, "unit": "%"}, {"measurement": "Proportion of Patients Reaching LDL-C goal (%)", "setting": "[2]; week 24, calculated LDL-C <70 mg/dL very high risk or <100 mg/dL high risk, combined estimate", "value": 62.2, "unit": "%"}]}
